PubChem BioAssay AID256 (DTP/NCI, 2004)
Values joined by “and” are separate entries in the source; they are usually repeats but may differ in a detail not shown here. Equal entries are not always repeated. Inconclusive results and toxic doses are left out.

System: CD2F1 mice, L1210 leukemia ip, survival T/C
Assay: NCI In Vivo Anticancer Drug Screen. Data for tumor model L1210 Leukemia (intraperitoneal) in CD2F1 (CDF1) mice
Conditions: higher = longer survival
Method in brief: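 Mice carrying a transplanted tumor received test compound or vehicle alone. The value is the measurement in the treated group divided by that in the vehicle-treated control group.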

[1] = endpoint: mean survival time, dose: 200.0 mg/kg/injection, schedule: Q01DX009 (ip), vehicle: saline
[2] = endpoint: mean survival time, dose: 200.0 mg/kg/injection, schedule: Q04DX003 (ip), vehicle: saline
[3] = endpoint: mean survival time, dose: 100.0 mg/kg/injection, schedule: Q04DX003 (ip), vehicle: saline with Tween-80
[4] = endpoint: mean survival time, dose: 200.0 mg/kg/injection, schedule: Q04DX003 (ip), vehicle: saline with Tween-80
[5] = endpoint: mean survival time, dose: 100.0 mg/kg/injection, schedule: Q01DX009 (ip), vehicle: saline with Tween-80
[6] = endpoint: mean survival time, dose: 200.0 mg/kg/injection, schedule: Q01DX009 (ip), vehicle: saline with Tween-80
[7] = endpoint: mean survival time, dose: 400.0 mg/kg/injection, schedule: Q01DX009 (ip), vehicle: saline with Tween-80
[8] = endpoint: mean survival time, dose: 100.0 mg/kg/injection, schedule: Q01DX009 (ip), vehicle: saline
[9] = endpoint: mean survival time, dose: 100.0 mg/kg/injection, schedule: Q04DX003 (ip), vehicle: saline
[10] = endpoint: mean survival time, dose: 400.0 mg/kg/injection, schedule: Q04DX003 (ip), vehicle: saline

O=C[C@@H](CO)O[C@H](C=O)n1cnc2c(=O)[nH]cnc21
T/C (endpoint: mean survival time, dose: 20.0 mg/kg/injection, schedule: Q01DX009 (ip), vehicle: saline): 111 % of control | T/C (endpoint: mean survival time, dose: 40.0 mg/kg/injection, schedule: Q01DX009 (ip), vehicle: saline): 115 % of control | T/C (endpoint: mean survival time, dose: 50.0 mg/kg/injection, schedule: Q04DX003 (ip), vehicle: saline): 114 % of control | T/C (endpoint: mean survival time, dose: 70.0 mg/kg/injection, schedule: Q01DX001 (ip), vehicle: saline): 110 % of control | T/C (endpoint: mean survival time, dose: 80.0 mg/kg/injection, schedule: Q01DX009 (ip), vehicle: saline): 160 % of control | T/C (endpoint: mean survival time, dose: 100.0 mg/kg/injection, schedule: Q01DX007 (ip), vehicle: saline): 156 % of control | T/C (endpoint: mean survival time, dose: 140.0 mg/kg/injection, schedule: Q01DX001 (ip), vehicle: saline): 124 % of control | T/C (endpoint: mean survival time, dose: 160.0 mg/kg/injection, schedule: Q01DX009 (ip), vehicle: saline): 177 % of control and 182 % of control | T/C (endpoint: mean survival time, dose: 200.0 mg/kg/injection, schedule: Q01DX007 (ip), vehicle: saline): 150 % of control | T/C [1]: 287 % of control | T/C (endpoint: mean survival time, dose: 200.0 mg/kg/injection, schedule: Q03DX003 (ip), vehicle: saline): 162 % of control | T/C [2]: 158 % of control | T/C (endpoint: median survival time, dose: 38.9 mg/kg/injection, schedule: Q01DX005 (ip), vehicle: saline): 122 % of control | T/C (endpoint: median survival time, dose: 39.0 mg/kg/injection, schedule: Q01DX009 (ip), vehicle: clinical formulation): 122 % of control | T/C (endpoint: median survival time, dose: 50.0 mg/kg/injection, schedule: Q01DX005 (ip), vehicle: distilled water + Tween-80): 118 % of control | T/C (endpoint: median survival time, dose: 89.0 mg/kg/injection, schedule: Q01DX009 (ip), vehicle: clinical formulation): 173 % of control | T/C (endpoint: median survival time, dose: 89.0 mg/kg/injection, schedule: Q01DX009 (ip), vehicle: sodium bicarbonate): 171 % of control | T/C (endpoint: median survival time, dose: 133.0 mg/kg/injection, schedule: Q01DX009 (ip), vehicle: clinical formulation): 105 % of control | T/C (endpoint: median survival time, dose: 133.0 mg/kg/injection, schedule: Q01DX009 (ip), vehicle: sodium bicarbonate): 163 % of control | T/C (endpoint: median survival time, dose: 180.0 mg/kg/injection, schedule: Q01DX005 (ip), vehicle: saline): 170 % of control | T/C (endpoint: median survival time, dose: 200.0 mg/kg/injection, schedule: Q01DX005 (ip), vehicle: distilled water + Tween-80): 196 % of control | T/C (endpoint: median survival time, dose: 300.0 mg/kg/injection, schedule: Q01DX005 (ip), vehicle: saline): 238 % of control

CC(C)(C)C1(C#N)C(=O)C2CCCCC21 (stereo not given)
T/C (endpoint: mean survival time, dose: 12.5 mg/kg/injection, schedule: Q04DX002 (ip), vehicle: saline with Tween-80): 105 % of control | T/C (endpoint: mean survival time, dose: 25.0 mg/kg/injection, schedule: Q04DX002 (ip), vehicle: saline with Tween-80): 97 % of control | T/C (endpoint: mean survival time, dose: 50.0 mg/kg/injection, schedule: Q04DX002 (ip), vehicle: saline with Tween-80): 94 % of control

CC(CP(=O)(c1ccccc1)c1ccccc1)C(=O)O (stereo not given)
T/C [3]: 92 % of control | T/C [4]: 95 % of control | T/C (endpoint: mean survival time, dose: 400.0 mg/kg/injection, schedule: Q04DX003 (ip), vehicle: saline with Tween-80): 101 % of control

CCc1ccccc1NC(=O)Nc1ccc(N(C)C(C)=O)cc1
T/C [5]: 95 % of control | T/C [6]: 93 % of control | T/C [7]: 93 % of control

CCCCN(CCCC)CCNc1ccc(C)c2sc3ccccc3c(=O)c12
T/C (endpoint: mean survival time, dose: 50.0 mg/kg/injection, schedule: Q01DX001 (ip), vehicle: saline): 91 % of control | T/C (endpoint: mean survival time, dose: 100.0 mg/kg/injection, schedule: Q01DX001 (ip), vehicle: saline): 88 % of control | T/C [8]: 101 % of control | T/C [9]: 91 % of control | T/C (endpoint: mean survival time, dose: 200.0 mg/kg/injection, schedule: Q01DX001 (ip), vehicle: saline): 91 % of control | T/C [1]: 91 % of control | T/C (endpoint: mean survival time, dose: 400.0 mg/kg/injection, schedule: Q01DX001 (ip), vehicle: saline): 88 % of control | T/C (endpoint: mean survival time, dose: 400.0 mg/kg/injection, schedule: Q01DX009 (ip), vehicle: saline): 94 % of control | T/C [10]: 87 % of control

CC(C)C1CC2CCC3C(C)(C(=O)O)CCCC3(C)C2CC1CO (stereo not given)
T/C [5]: 87 % of control | T/C [6]: 91 % of control | T/C [7]: 86 % of control

C=CCOCC(O)CNCC(O)COCC=C (stereo not given)
T/C [3]: 100 % of control

C/C=C/CNc1ccccc1
T/C (endpoint: mean survival time, dose: 50.0 mg/kg/injection, schedule: Q01DX009 (ip), vehicle: saline): 102 % of control | T/C [8]: 101 % of control | T/C [3]: 95 % of control | T/C [1]: 96 % of control | T/C [4]: 97 % of control

CN(C)c1ccc(C2(O)C3CCC2CC3)cc1 (stereo not given)
T/C (endpoint: median survival time, dose: 25.0 mg/kg/injection, schedule: Q04DX002 (ip), vehicle: saline with Tween-80): 90 % of control | T/C (endpoint: median survival time, dose: 50.0 mg/kg/injection, schedule: Q04DX002 (ip), vehicle: saline with Tween-80): 100 % of control | T/C (endpoint: median survival time, dose: 100.0 mg/kg/injection, schedule: Q04DX002 (ip), vehicle: saline with Tween-80): 90 % of control

C[n+]1csc(=S)[nH]1
T/C [9]: 105 % of control | T/C [2]: 109 % of control | T/C [10]: 114 % of control
